{
  "source": "patent US11058716B2",
  "about": "(priority 2015, dated 2021)",
  "test_system": "PAO1 protein",
  "assay_type": "cell-based, Pseudomonas aeruginosa",
  "data": [
    {"smiles": "N[C@@H](CCC(=O)N[C@@H](CSN=O)C(=O)NCC(=O)O)C(=O)O", "note": "[GSNO, nitrosoglutathione]", "values": [
      {"measurement": "overall SNO level of the PAO1 protein", "result": "increased significantly"}
    ]}
  ]
}
